Results published in publication PMC3885398, “Evaluation of the Antitumor Effects of BPR1J-340, a Potent and Selective FLT3 Inhibitor, Alone or in Combination with an HDAC Inhibitor, Vorinostat, in AML Cancer” (PLoS ONE, 2014).

Key:
Assay in all cases: Invitrogen SelectScreen kinase profiling
Assay type in all cases: biochemical
Settings in all cases: 100 nM
ABL1 = target: T1, ABL1 (Homo sapiens, UniProt P00519)
T1 construct: purchased Invitrogen SelectScreen
Protocol: (§1) The FLT3 and VEGFR1/2 Kinase-Glo kinase assays were performed as reported by our earlier study. The VEGFR3 activity analysis was conducted using the same protocol described in the VEGFR1/2 assay. The kinase inhibition profiling and inhibitory activity of FLT3-D835Y, CSF1R, and TRKA were determined by Invitrogen SelectScreen® kinase profiling service (Carlsbad, California, USA).
(§2) BPR1J-340, a urea-substituted 3-phenyl-1H-5-pyrazolylamine-based compound, was designed through chemical modification of sulfonamide series of derivatives (BPR1J-097 series) by a structure-activity relationship (SAR) study (Fig. 1), [32]. For kinase inhibition specificity screening, BPR1J-340 was tested against 59 protein kinases covering the major oncogenic kinases of human protein kinome. […] In addition, BPR1J-340 inhibited TRKA, which is associated with the growth and metastasis of breast cancers, with an IC50 value of 8 nM. Given the high similarity of the ATP binding pockets of FLT3 and the Aurora kinases, the inhibitory activity toward Aurora A and Aurora B were measured. […] Taken together, BPRJ-340 is a selective kinase inhibitor with in vitro activity against FLT3, VEGFR2, VEGFR3 and TRKA receptor tyrosine kinases.

ABL1 T315I = target: T2, ABL1 T315I (Homo sapiens, UniProt P00519, T315I)
T2 construct: purchased Invitrogen SelectScreen
Protocol: as §1, §2

AKT1 (PKB alpha) = target: T3, AKT1 (PKB alpha) (Homo sapiens, UniProt P31749)
T3 construct: purchased Invitrogen SelectScreen
Protocol: as §1, §2

AURKA (Aurora A) = target: T4, AURKA (Aurora A) (Homo sapiens, UniProt O14965)
T4 construct: purchased Invitrogen SelectScreen
Protocol: as §1, §2

AURKC (Aurora C) = target: T5, AURKC (Aurora C) (Homo sapiens, UniProt Q9UQB9)
T5 construct: purchased Invitrogen SelectScreen
Protocol: as §1, §2

BRAF = target: T6, BRAF (Homo sapiens, UniProt P15056)
T6 construct: purchased Invitrogen SelectScreen
Protocol: as §1, §2

BTK = target: T7, BTK (Homo sapiens, UniProt Q06187)
T7 construct: purchased Invitrogen SelectScreen
Protocol: as §1, §2

CDC42 BPA (MRCKA) = target: T8, CDC42 BPA (MRCKA) (Homo sapiens, UniProt Q5VT25)
T8 construct: purchased Invitrogen SelectScreen
Protocol: as §1, §2

CHEK1 (CHK1) = target: T9, CHEK1 (CHK1) (Homo sapiens, UniProt O14757)
T9 construct: purchased Invitrogen SelectScreen
Protocol: as §1, §2

CHEK2 (CHK2) = target: T10, CHEK2 (CHK2) (Homo sapiens, UniProt O96017)
T10 construct: purchased Invitrogen SelectScreen
Protocol: as §1, §2

CLK1 = target: T11, CLK1 (Homo sapiens, UniProt P49759)
T11 construct: purchased Invitrogen SelectScreen
Protocol: as §1, §2

CLK2 = target: T12, CLK2 (Homo sapiens, UniProt P49760)
T12 construct: purchased Invitrogen SelectScreen
T12 sequence (P49760 whole entry): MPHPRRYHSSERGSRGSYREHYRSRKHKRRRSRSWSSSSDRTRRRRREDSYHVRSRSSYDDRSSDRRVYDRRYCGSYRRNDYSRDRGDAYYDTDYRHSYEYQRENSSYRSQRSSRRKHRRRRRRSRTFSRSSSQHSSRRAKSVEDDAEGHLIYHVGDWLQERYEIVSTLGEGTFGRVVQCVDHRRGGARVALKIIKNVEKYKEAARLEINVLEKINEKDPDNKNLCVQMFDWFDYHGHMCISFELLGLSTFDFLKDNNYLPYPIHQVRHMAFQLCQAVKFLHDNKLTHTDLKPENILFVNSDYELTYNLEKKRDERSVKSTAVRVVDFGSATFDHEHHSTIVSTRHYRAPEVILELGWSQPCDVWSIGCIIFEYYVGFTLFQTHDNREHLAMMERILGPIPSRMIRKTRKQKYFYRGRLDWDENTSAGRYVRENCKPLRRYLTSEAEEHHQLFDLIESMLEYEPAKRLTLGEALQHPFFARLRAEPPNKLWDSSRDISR
Protocol: as §1, §2

FGFR1 = target: T13, FGFR1 (Homo sapiens, UniProt P11362)
T13 construct: purchased Invitrogen SelectScreen
T13 sequence (P11362 22-822): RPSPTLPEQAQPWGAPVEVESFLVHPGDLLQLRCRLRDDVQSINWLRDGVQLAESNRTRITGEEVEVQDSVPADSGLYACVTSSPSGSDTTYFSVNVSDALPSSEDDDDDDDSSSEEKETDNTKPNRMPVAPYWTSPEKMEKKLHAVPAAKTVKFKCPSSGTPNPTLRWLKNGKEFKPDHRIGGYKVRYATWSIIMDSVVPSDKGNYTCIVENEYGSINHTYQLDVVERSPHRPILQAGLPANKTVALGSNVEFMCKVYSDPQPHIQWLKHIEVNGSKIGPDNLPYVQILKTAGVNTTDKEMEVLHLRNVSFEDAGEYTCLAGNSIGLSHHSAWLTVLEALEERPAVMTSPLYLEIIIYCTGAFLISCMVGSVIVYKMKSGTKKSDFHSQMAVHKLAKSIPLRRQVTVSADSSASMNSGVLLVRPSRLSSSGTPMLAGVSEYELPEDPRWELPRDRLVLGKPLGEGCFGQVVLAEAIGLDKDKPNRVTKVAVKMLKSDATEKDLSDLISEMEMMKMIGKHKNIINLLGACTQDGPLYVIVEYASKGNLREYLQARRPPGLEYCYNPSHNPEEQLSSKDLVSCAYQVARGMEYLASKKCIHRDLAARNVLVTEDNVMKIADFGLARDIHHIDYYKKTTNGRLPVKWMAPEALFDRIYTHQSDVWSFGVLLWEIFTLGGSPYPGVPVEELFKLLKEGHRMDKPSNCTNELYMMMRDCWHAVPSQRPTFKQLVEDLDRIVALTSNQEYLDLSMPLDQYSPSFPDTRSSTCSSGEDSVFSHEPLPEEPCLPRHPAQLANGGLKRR
Protocol: as §1, §2

FLT1 (VEGFR1) = target: T14, FLT1 (VEGFR1) (Homo sapiens, UniProt P17948)
T14 construct: purchased Invitrogen SelectScreen
Protocol: as §1, §2

FRAP1 (mTOR) = target: T15, FRAP1 (mTOR) (Homo sapiens, UniProt P42345)
T15 construct: purchased Invitrogen SelectScreen
Protocol: as §1, §2

GSK3A (GSK3 alpha) = target: T16, GSK3A (GSK3 alpha) (Homo sapiens, UniProt P49840)
T16 construct: purchased Invitrogen SelectScreen
Protocol: as §1, §2

IGF1R = target: T17, IGF1R (Homo sapiens, UniProt P08069)
T17 construct: purchased Invitrogen SelectScreen
T17 sequence (P08069 31-1367): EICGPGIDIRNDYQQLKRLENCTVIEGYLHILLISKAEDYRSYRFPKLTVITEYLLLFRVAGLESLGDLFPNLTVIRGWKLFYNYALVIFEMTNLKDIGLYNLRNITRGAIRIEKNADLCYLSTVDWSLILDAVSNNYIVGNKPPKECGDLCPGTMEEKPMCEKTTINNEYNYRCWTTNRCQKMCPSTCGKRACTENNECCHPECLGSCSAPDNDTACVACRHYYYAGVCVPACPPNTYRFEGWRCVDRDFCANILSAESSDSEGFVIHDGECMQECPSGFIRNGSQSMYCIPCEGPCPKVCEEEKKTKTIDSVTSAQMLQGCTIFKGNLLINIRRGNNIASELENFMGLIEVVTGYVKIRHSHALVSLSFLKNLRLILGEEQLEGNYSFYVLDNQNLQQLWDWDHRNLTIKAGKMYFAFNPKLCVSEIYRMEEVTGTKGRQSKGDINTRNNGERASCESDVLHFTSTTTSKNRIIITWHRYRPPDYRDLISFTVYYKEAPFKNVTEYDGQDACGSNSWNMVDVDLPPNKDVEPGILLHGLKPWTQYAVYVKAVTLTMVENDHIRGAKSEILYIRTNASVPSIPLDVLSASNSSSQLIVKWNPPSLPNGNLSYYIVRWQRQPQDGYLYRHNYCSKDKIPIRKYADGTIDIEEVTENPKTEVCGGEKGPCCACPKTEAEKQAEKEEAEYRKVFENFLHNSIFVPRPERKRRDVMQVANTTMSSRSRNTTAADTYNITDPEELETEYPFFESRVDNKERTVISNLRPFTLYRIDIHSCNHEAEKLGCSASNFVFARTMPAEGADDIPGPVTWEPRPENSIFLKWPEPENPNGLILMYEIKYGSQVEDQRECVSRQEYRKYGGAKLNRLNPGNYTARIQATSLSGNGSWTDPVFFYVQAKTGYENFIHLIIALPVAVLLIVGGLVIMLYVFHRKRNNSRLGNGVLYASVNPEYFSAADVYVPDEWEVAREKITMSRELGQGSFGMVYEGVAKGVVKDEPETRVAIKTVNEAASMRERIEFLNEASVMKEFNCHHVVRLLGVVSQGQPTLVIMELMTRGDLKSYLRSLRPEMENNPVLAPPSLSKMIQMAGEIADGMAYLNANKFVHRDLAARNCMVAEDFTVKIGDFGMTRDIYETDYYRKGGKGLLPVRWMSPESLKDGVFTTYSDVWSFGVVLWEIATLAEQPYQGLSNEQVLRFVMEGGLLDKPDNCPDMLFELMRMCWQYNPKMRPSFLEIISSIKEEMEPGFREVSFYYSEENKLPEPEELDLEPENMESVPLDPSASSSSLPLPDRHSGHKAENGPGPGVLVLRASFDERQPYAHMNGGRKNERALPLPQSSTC
Protocol: as §1, §2

JAK1 = target: T18, JAK1 (Homo sapiens, UniProt P23458)
T18 construct: purchased Invitrogen SelectScreen
T18 sequence (P23458 whole entry): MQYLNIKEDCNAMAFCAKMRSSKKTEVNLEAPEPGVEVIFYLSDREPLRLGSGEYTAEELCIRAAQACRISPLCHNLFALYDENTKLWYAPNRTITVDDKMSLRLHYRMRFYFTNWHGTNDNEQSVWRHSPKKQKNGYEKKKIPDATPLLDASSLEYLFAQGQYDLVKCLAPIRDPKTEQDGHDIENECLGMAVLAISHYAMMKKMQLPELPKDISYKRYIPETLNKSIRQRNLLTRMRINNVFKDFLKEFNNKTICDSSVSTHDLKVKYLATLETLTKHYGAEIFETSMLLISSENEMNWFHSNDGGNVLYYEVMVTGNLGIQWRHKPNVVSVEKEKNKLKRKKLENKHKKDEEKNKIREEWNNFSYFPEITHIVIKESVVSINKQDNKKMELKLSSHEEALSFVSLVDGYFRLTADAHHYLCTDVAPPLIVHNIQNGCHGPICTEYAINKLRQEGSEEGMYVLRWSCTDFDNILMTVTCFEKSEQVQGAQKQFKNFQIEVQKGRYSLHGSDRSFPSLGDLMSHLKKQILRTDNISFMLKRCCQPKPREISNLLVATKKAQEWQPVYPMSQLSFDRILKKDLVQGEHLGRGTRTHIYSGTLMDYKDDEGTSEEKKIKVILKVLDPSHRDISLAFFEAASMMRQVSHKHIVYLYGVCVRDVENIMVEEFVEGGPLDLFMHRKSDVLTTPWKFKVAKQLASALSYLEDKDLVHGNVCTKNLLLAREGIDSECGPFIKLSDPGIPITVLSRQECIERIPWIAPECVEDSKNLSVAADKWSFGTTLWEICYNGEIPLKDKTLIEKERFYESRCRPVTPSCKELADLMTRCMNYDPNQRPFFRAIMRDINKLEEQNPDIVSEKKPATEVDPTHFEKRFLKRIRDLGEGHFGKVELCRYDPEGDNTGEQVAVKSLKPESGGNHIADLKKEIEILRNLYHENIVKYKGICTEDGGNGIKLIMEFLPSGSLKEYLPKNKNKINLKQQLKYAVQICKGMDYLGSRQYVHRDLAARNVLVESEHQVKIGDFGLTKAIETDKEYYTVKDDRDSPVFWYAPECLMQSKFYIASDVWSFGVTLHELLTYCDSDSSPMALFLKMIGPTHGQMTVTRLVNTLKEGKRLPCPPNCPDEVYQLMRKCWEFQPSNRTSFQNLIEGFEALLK
Protocol: as §1, §2

KIT = target: T19, KIT (Homo sapiens, UniProt P10721)
T19 construct: purchased Invitrogen SelectScreen
Protocol: as §1, §2

MAPK14 (p38 alpha) = target: T20, MAPK14 (p38 alpha) (Homo sapiens, UniProt Q16539)
T20 construct: purchased Invitrogen SelectScreen
Protocol: as §1, §2

MAPK8 (JNK1) = target: T21, MAPK8 (JNK1) (Homo sapiens, UniProt P45983)
T21 construct: purchased Invitrogen SelectScreen
Protocol: as §1, §2

MET (cMet) = target: T22, MET (cMet) (Homo sapiens, UniProt P08581)
T22 construct: purchased Invitrogen SelectScreen
Protocol: as §1, §2

MST1R (RON) = target: T23, MST1R (RON) (Homo sapiens, UniProt Q04912)
T23 construct: purchased Invitrogen SelectScreen
Protocol: as §1, §2

NEK1 = target: T24, NEK1 (Homo sapiens, UniProt Q96PY6)
T24 construct: purchased Invitrogen SelectScreen
Protocol: as §1, §2

NEK2 = target: T25, NEK2 (Homo sapiens, UniProt P51955)
T25 construct: purchased Invitrogen SelectScreen
Protocol: as §1, §2

PDGFRB (PDGFR beta) = target: T26, PDGFRB (PDGFR beta) (Homo sapiens, UniProt P09619)
T26 construct: purchased Invitrogen SelectScreen
Protocol: as §1, §2

RAF1 (cRAF) Y340D Y341D = target: T27, RAF1 (cRAF) Y340D Y341D (Homo sapiens, UniProt P04049, Y340D/Y341D)
T27 construct: purchased Invitrogen SelectScreen
Protocol: as §1, §2

RET = target: T28, RET (Homo sapiens, UniProt P07949)
T28 construct: purchased Invitrogen SelectScreen
T28 sequence (P07949 29-1114): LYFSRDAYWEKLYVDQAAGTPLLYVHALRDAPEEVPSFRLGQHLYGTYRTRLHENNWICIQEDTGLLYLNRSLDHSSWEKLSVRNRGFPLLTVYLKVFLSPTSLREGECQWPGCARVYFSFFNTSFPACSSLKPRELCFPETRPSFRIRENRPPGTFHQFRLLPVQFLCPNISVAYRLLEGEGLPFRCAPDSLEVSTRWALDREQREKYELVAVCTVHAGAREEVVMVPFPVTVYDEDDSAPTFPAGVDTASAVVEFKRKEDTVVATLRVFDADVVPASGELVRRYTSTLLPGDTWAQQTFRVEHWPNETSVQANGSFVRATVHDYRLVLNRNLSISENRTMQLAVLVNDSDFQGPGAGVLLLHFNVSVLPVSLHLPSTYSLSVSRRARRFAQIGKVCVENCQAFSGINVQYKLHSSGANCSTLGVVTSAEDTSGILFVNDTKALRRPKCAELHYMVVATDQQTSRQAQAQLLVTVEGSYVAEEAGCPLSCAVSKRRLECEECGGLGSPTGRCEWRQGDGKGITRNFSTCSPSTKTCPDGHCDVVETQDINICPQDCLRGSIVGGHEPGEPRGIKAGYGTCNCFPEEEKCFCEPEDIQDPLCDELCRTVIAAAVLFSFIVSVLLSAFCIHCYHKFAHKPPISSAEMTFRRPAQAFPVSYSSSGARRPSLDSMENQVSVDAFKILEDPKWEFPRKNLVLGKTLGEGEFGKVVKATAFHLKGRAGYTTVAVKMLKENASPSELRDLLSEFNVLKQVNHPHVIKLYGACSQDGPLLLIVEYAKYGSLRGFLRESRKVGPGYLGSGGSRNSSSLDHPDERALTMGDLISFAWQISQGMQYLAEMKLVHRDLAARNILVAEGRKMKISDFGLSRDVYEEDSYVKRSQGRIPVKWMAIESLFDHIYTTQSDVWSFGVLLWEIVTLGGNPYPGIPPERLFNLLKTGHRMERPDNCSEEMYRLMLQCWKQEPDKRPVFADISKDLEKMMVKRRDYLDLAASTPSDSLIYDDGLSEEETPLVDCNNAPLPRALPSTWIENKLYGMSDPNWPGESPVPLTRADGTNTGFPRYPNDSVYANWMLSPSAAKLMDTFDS
Protocol: as §1, §2

RPS6KA2 (RSK3) = target: T29, RPS6KA2 (RSK3) (Homo sapiens, UniProt Q15349)
T29 construct: purchased Invitrogen SelectScreen
Protocol: as §1, §2

RPS6KA3 (RSK2) = target: T30, RPS6KA3 (RSK2) (Homo sapiens, UniProt P51812)
T30 construct: purchased Invitrogen SelectScreen
Protocol: as §1, §2

SGK (SGK1) = target: T31, SGK (SGK1) (Homo sapiens, UniProt O00141)
T31 construct: purchased Invitrogen SelectScreen
Protocol: as §1, §2

SGKL (SGK3) = target: T32, SGKL (SGK3) (Homo sapiens, UniProt Q96BR1)
T32 construct: purchased Invitrogen SelectScreen
Protocol: as §1, §2

SRC = target: T33, SRC (Homo sapiens, UniProt P12931)
T33 construct: purchased Invitrogen SelectScreen
Protocol: as §1, §2

TEK (Tie2) = target: T34, TEK (Tie2) (Homo sapiens, UniProt Q02763)
T34 construct: purchased Invitrogen SelectScreen
Protocol: as §1, §2

TYK2 = target: T35, TYK2 (Homo sapiens, UniProt P29597)
T35 construct: purchased Invitrogen SelectScreen
Protocol: as §1, §2

TYRO3 (RSE) = target: T36, TYRO3 (RSE) (Homo sapiens, UniProt Q06418)
T36 construct: purchased Invitrogen SelectScreen
Protocol: as §1, §2

## CCc1cc(NC(=O)NCc2ccc(-c3cc(NC(=O)c4ccc(CN5CCN(C)CC5)cc4)[nH]n3)cc2)no1 [BPR1J-340, N1-(3-4-[([(5-ethyl-3-isoxazolyl)amino]carbonylamino)methyl]phenyl-1H-5-pyrazolyl)-4-[(4-methylpiperazino)methyl]benzamide]
ABL1
  inhibition at 0.1 µM: 7%
ABL1 T315I
  inhibition at 0.1 µM: 15%
AKT1 (PKB alpha)
  inhibition at 0.1 µM: -2%
AURKA (Aurora A)
  inhibition at 0.1 µM: 15%
AURKC (Aurora C)
  inhibition at 0.1 µM: 19%
BRAF
  inhibition at 0.1 µM: 5%
BTK
  inhibition at 0.1 µM: 7%
CDC42 BPA (MRCKA)
  inhibition at 0.1 µM: -8%
CHEK1 (CHK1)
  inhibition at 0.1 µM: 27%
CHEK2 (CHK2)
  inhibition at 0.1 µM: -6%
CLK1
  inhibition at 0.1 µM: 6%
CLK2
  inhibition at 0.1 µM: -7%
FGFR1
  inhibition at 0.1 µM: 17%
FLT1 (VEGFR1)
  inhibition at 0.1 µM: 15%
FRAP1 (mTOR)
  inhibition at 0.1 µM: -8%
GSK3A (GSK3 alpha)
  inhibition at 0.1 µM: -1%
IGF1R
  inhibition at 0.1 µM: 12%
JAK1
  inhibition at 0.1 µM: -3%
KIT
  inhibition at 0.1 µM: 66%
MAPK14 (p38 alpha)
  inhibition at 0.1 µM: 24%
MAPK8 (JNK1)
  inhibition at 0.1 µM: 14%
MET (cMet)
  inhibition at 0.1 µM: 17%
MST1R (RON)
  inhibition at 0.1 µM: 6%
NEK1
  inhibition at 0.1 µM: -6%
NEK2
  inhibition at 0.1 µM: 2%
PDGFRB (PDGFR beta)
  inhibition at 0.1 µM: 39%
RAF1 (cRAF) Y340D Y341D
  inhibition at 0.1 µM: 4%
RET
  inhibition at 0.1 µM: 49%
RPS6KA2 (RSK3)
  inhibition at 0.1 µM: 9%
RPS6KA3 (RSK2)
  inhibition at 0.1 µM: 0%
SGK (SGK1)
  inhibition at 0.1 µM: 11%
SGKL (SGK3)
  inhibition at 0.1 µM: 12%
SRC
  inhibition at 0.1 µM: 34%
TEK (Tie2)
  inhibition at 0.1 µM: 42%
TYK2
  inhibition at 0.1 µM: 23%
TYRO3 (RSE)
  inhibition at 0.1 µM: 15%
